Assays:
Carbonic anhydrase 9 = Carbonic anhydrase 9 (Homo sapiens, UniProt Q16790); test: Inhibition of human carbonic anhydrase 9 by stopped-flow CO2 hydrase assay
Carbonic anhydrase 2 = Carbonic anhydrase 2 (Homo sapiens, UniProt P00918); test: Inhibition of human carbonic anhydrase 2 by stopped-flow CO2 hydrase assay
Carbonic anhydrase 1 = Carbonic anhydrase 1 (Homo sapiens, UniProt P00915); test: Inhibition of human carbonic anhydrase 1 by stopped-flow CO2 hydrase assay
Sequence of Carbonic anhydrase 1 (P00915 whole entry): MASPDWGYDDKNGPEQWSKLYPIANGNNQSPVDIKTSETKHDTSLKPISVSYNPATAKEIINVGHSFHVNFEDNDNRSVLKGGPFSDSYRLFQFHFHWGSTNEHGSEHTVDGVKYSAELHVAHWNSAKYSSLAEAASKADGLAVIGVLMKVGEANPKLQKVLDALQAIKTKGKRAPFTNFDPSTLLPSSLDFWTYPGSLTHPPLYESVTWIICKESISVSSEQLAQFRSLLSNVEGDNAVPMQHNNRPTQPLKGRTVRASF

Ki (Carbonic anhydrase 9) [µM]	Ki (Carbonic anhydrase 2) [µM]	Ki (Carbonic anhydrase 1) [µM]	SMILES
–	> 10	> 10	CCCN(CCC)S(=O)(=O)c1ccc(C(=O)NCC)cc1
0.188	> 10	> 10	CCCN(CCC)S(=O)(=O)c1ccc(C(=O)NC2CCCC(C)C2)cc1 (centres undefined)
2.02	> 10	> 10	CCCN(CCC)S(=O)(=O)c1ccc(C(=O)NC2CCC(C)CC2)cc1 (centres undefined)
0.213	> 10	> 10	CCCN(CCC)S(=O)(=O)c1ccc(C(=O)NCCCN2CCOCC2)cc1
1.26	> 10	> 10	CCCN(CCC)S(=O)(=O)c1ccc(C(=O)NCCN2CCCCC2)cc1
0.11	> 10	> 10	CCCN(CCC)S(=O)(=O)c1ccc(C(=O)NCCN(CC)CC)cc1
2.04	> 10	> 10	CCCN(CCC)S(=O)(=O)c1ccc(C(=O)Nc2ccncc2)cc1
0.0236	> 10	> 10	CCCN(CCC)S(=O)(=O)c1ccc(C(=O)Nc2ccccc2Cl)cc1
0.246	> 10	> 10	CCCN(CCC)S(=O)(=O)c1ccc(C(=O)Nc2ccc([N+](=O)[O-])cc2)cc1

SMILES	Ki (Carbonic anhydrase 9) [µM]	Ki (Carbonic anhydrase 2) [µM]	Ki (Carbonic anhydrase 1) [µM]
CCCN(CCC)S(=O)(=O)c1ccc(C(=O)Nc2ccccn2)cc1	0.199	> 10	–
CCCN(CCC)S(=O)(=O)c1ccc(C(=O)NCc2ccccc2)cc1	0.0206	> 10	> 10
CCCN(CCC)S(=O)(=O)c1ccc(C(=O)Nc2ccccc2C)cc1	0.0613	> 10	> 10

Reference: ChEMBL document CHEMBL3585297, “New amide derivatives of Probenecid as selective inhibitors of carbonic anhydrase IX and XII: biological evaluation and molecular modelling studies” (Bioorg Med Chem, 2015)
